This test relates to metastatic adenocarcinoma of the pancreas. The test is described as follows: MPACT phase III trial, overall survival by plasma ADAM12 group. The conditions noted are these: poorest-outcome group: ADAM12 became detectable or increased at cycle 2.

1 compound from US20210145964A1, “STROMA-TARGETING TREATMENT FOR PATIENTS WITH ELEVATED ADAM12 LEVELS” (Academisch Medisch Centrum, priority 2019, published 2021) can be followed below.

Experimental: In the MPACT trial cohort, collection of plasma samples for biomarker development was optional and separate written consent was obtained for sample collection and biomarker analysis. […] All patients provided informed consent. […] Patients were randomized 1:1 (stratified by performance status, presence of liver metastases, and region) to receive nab-paclitaxel 125 mg/m^2 plus gemcitabine 1,000 mg/m^2 on days 1, 8, and 15 every 28 days or gemcitabine alone 1,000 mg/m^2 on days 1, 8, 15, 22, 29, 36, and 43 in 56 days (cycle 1) and then on days 1, 8, and 15 every 28 days (cycle≥2). Treatment continued until disease progression or unacceptable toxicity.
MPACT trial blood samples were collected in EDTA tubes to chelate calcium and prevent blood clotting, and storage at −80° C. until analysis. To allow the analysis of these plasma samples using the ADAM12 DuoSet ELISA, recalcification was required. […]
For the MPACT cohort, baseline ADAM12 values were categorized into undetectable (0) and detectable (>0). The fold change of ADAM12 at cycle 2, day 1 (C2D1) from baseline (cycle 1, day 1; C1D1) was calculated by the results at C2D1 divided by the value at C1D1. […] All eligible samples were measured and no power calculation was performed. Overall survival was analyzed using Kaplan-Meier method and log-rank test. […]

In turn, `Nc1ccn([C@@H]2O[C@H](CO)[C@@H](O)C2(F)F)c(=O)n1` [gemcitabine] yielded an overall survival of 6.9 months.
